{"source": "patent US5179079A", "about": "“Nasal formulation and intranasal administration therewith” (Novo Nordisk A/S, priority 1986, dated 1993)", "origin": "cited, not measured here", "conditions": "compared with intravenous administration", "data": [{"compound": "CC(=O)[C@H]1CC[C@H]2[C@@H]3CCC4=CC(=O)CC[C@]4(C)[C@H]3CC[C@]12C", "note": "[progesterone]", "values": [{"measurement": "blood levels after absorption from the nasal cavity", "result": "blood levels almost equal to intraveneous administration"}]}, {"compound": "CC(C)NCC(O)COc1cccc2ccccc12", "note": "(centres unmarked) [propranolol]", "values": [{"measurement": "blood levels after absorption from the nasal cavity", "result": "blood levels almost equal to intraveneous administration"}]}]}
